# Measured values published in patent US20070104644A1, “Inhibitor imaging agents” (priority 2003, published 2007).
# Numbered stars: 1 amine (or outer) side, 2 acyl side, 3 side chain; on linkers, the order of the positions; unused ones are H or OH. Square brackets hold non-standard residues; d marks the D form. Peptide text beside a SMILES is read from it. * marks the point of attachment. Tyr(3-I) = N[C@@H](Cc1ccc(O)c(I)c1)C(=O)O; X2 = O=C(NO)C1(N(CCC(=O)[*:2])[*:1])CCCC1; X1 = O=S(=O)(c1ccc(Oc2ccc(F)cc2)cc1)*
# Assays:
# MMP-2 = target: T1, MMP-2 (Homo sapiens, UniProt P08253); assay: MMP-2 colorimetric assay kit (Biomol AK-408); assay type: biochemical
# T1 sequence (P08253 110-660): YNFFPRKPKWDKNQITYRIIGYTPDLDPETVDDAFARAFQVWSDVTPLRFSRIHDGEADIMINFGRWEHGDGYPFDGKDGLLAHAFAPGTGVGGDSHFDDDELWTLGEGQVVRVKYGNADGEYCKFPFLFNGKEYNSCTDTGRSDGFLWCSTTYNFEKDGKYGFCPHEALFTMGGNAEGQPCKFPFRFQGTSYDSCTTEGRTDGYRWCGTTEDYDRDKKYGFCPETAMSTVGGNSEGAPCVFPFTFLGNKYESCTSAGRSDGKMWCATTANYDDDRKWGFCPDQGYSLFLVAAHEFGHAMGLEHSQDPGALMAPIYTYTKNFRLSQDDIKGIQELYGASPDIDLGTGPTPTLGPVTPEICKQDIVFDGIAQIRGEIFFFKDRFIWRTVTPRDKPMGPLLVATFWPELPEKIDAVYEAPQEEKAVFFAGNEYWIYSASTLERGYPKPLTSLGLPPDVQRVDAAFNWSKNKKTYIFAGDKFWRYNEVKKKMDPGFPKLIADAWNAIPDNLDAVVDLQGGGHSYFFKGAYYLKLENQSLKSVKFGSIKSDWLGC
# Procedure: (§1) Compounds were screened using the following commercially available Biomol assay kits: • MMP-1 colorimetric assay kit—Catalogue number AK-404, • MMP-2 colorimetric assay kit—Catalogue number AK-408, • MMP-8 calorimetric assay kit—Catalogue number AK-414, • MMP-9 calorimetric assay kit—Catalogue number AK-410, • MMP-12 colorimetric assay kit—Catalogue number AK-402, Which are available from Affiniti Research Products Ltd. (Palatine House, Matford Court, Exeter, EX2 8NL, UK).
# (§2) Inhibitors were provided in powdered form, and stored at 4° C. For each inhibitor a 1 mM stock solution in DMSO was prepared, dispensed into 20 μl aliquots and these aliquots stored at −20° C. The stock solution was diluted to give 8 inhibitor concentrations (recommended: 50 μM, 5 μM, 500 nM, 50 nM, 5 nM, 500 pM, 50 pM and 5 pM). Dilutions were made in the kit assay buffer. A five-fold dilution of the inhibitor stocks is made on addition to the assay wells, therefore final concentration range was from 10 μM to 1 pM.
# (§3) Details are provided with the commercial kit, but can be summarised as follows: • Prepare test compound dilutions as above, • Add assay buffer to plate, • Add test compounds to plate • Prepare standard kit inhibitor NNGH (see kit for dilution factor) • Add NNGH to control inhibitor wells • Prepare MMP enzyme (see kit for dilution factor) • Add MMP to plate • Incubate plate at 37° C. for ˜15 min • Prepare thiopeptolide substrate (see kit for dilution factor) • Add substrate to plate • Count every 2 min for 1 hr, 37° C., 414 nm on a Labsystems iEMS plate reader (for MMP-1 count every 30 seconds for 20 minutes).
# MMP-9 = MMP-9 (Homo sapiens, UniProt P14780); assay: MMP-9 colorimetric assay kit (Biomol AK-410); assay type: biochemical
# Sequence of MMP-9 (P14780 94-707): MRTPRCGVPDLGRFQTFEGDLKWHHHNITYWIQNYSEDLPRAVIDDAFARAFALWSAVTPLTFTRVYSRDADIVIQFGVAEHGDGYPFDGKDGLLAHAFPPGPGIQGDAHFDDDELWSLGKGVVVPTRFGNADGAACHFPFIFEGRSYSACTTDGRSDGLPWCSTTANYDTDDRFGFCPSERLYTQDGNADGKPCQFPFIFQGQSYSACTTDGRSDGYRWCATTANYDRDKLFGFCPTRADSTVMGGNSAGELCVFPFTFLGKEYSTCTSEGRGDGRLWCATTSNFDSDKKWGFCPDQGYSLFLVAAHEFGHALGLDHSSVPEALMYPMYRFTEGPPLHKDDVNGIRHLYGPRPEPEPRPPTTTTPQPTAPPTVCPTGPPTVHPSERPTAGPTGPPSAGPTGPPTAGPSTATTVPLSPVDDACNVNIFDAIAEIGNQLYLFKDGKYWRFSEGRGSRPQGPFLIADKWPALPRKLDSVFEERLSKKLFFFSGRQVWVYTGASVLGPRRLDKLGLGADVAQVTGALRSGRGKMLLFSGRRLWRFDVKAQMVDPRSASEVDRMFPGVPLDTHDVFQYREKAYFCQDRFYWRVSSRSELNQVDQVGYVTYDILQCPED
# Procedure: as §1, §2, §3
# [1] = test system: Lewis lung carcinoma (LLC) tumour; assay: Biodistribution in LLC tumour model in vivo; parameters: species or system C57BL/6 mice
# Procedure: 1×10^6 Lewis lung carcinoma (LLC) cells are injected subcutaneously into right inner thigh of C57BL/6 mice. Tumours were allowed to grow for 15 days prior to biodistribution being carried out.
# Biodistribution studies were performed in the LLC tumour model.
# Biodistribution was performed in the LLC tumour model of Example 23 with Compounds 46B and 48B.
# [2] = test system: ApoE −/− mice, carotid artery; assay: Biodistribution in ApoE ligation model of atherosclerosis (ligated and sham); assay type: in vivo
# Source text: ApoE −/− mice are transgenic knock-out mice, which lack the ApoE gene, and are therefore unable to regulate their plasma cholesterol levels. As a consequence ApoE mice develop atherosclerotic lesions, a process which is accelerated with feeding of high fat diet. Further acceleration of lesion development can be achieved by ligating the carotid artery, resulting in advanced lesion formation within 4 weeks of surgery and high fat diet feeding.
# Two controls have been used for these experiments: (1) ApoE sham animals in which the mice undergo the same surgical intervention but the sture is only passed beneath the carotid and then removed and, (2) C57BL/6 ligtaed animals which undergo the same surgical ligation and high fat feeding as the ApoE ligated mice. Literature reports have stated that these animals do have some level of tissue remodelling, but with lower active MMP levels [Ivan et al, Circulation, 105, 2686-2691 (2002)].
# MMP-12 = MMP-12 (Homo sapiens, UniProt P39900); assay: MMP-12 colorimetric assay kit (Biomol AK-402); assay type: biochemical
# Sequence of MMP-12 (P39900 106-470): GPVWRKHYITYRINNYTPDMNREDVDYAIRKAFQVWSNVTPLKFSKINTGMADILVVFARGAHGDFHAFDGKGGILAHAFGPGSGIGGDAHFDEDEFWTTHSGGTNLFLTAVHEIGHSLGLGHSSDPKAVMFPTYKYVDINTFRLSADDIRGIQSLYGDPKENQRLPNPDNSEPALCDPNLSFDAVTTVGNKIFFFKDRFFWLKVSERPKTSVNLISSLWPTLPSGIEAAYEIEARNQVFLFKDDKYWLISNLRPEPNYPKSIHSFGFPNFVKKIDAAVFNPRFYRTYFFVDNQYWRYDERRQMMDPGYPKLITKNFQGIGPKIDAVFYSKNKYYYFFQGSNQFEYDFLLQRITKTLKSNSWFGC
# Procedure: as §1, §2, §3
# MMP-1 = target: T2, MMP-1 (Homo sapiens, UniProt P03956); assay: MMP-1 colorimetric assay kit (Biomol AK-404); assay type: biochemical
# T2 sequence (P03956 100-469): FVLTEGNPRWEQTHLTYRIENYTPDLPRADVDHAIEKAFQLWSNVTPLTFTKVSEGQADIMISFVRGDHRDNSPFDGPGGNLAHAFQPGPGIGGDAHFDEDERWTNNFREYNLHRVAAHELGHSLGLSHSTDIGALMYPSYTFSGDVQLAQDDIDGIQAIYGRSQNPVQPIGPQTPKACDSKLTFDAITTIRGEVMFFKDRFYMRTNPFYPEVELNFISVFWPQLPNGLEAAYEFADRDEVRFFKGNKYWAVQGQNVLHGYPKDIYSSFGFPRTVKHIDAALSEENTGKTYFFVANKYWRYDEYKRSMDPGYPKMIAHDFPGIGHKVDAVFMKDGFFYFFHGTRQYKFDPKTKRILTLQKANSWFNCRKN
# Procedure: as §1, §2, §3
# MMP-8 = MMP-8 (Homo sapiens, UniProt P22894); assay: MMP-8 colorimetric assay kit (Biomol AK-414); assay type: biochemical
# Sequence of MMP-8 (P22894 101-467): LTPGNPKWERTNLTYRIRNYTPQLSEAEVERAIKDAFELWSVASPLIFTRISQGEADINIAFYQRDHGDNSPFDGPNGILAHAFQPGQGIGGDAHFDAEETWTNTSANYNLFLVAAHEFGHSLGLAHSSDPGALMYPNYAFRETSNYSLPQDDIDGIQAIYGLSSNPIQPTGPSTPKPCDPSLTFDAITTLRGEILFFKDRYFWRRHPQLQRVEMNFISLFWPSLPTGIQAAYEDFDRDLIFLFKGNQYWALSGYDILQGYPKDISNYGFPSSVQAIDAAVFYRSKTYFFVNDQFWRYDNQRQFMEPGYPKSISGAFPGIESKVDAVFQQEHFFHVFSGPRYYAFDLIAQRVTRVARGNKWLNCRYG
# Procedure: as §1, §2, §3
# [3] = ApoE Ligated, 5 min post injection
# [4] = ApoE Ligated, 60 min post injection
# [5] = ApoE Sham, 60 min post injection
compound,measurement,setting,value
NC(=O)[C@H](Cc1ccc(O)c(I)c1)NC(=O)CCOCCOCCOCCOCCOCCOCCOCCOCCOCCOCCOCCNC(=O)CCN(C1(C(=O)NO)CCCC1)S(=O)(=O)c1ccc(Oc2ccc(F)cc2)cc1 [Compound 44],Ki,MMP-2,0.25 nM
same,Ki,MMP-9,0.076 nM
NC(=O)[C@H](CCCCNC(=O)CON=Cc1ccc([18F])cc1)NC(=O)CCN(C1(C(=O)NO)CCCC1)S(=O)(=O)c1ccc(Oc2ccc(F)cc2)cc1 [Compound 46B],"% ID Urinary (urinary excretion), mean",[1]; 5 min post injection,6.60 % ID
same,"% ID/g Tumour, mean",[1]; 5 min post injection,0.42 % ID/g
same,"Tumour/Blood, mean",[1]; 5 min post injection,0.18
same,"Tumour/Heart, mean",[1]; 5 min post injection,0.37
same,"Tumour/Lung, mean",[1]; 5 min post injection,0.21
same,"Tumour/Muscle, mean",[1]; 5 min post injection,1.16
same,"% ID Urinary (urinary excretion), mean",[1]; 30 min post injection,12.00 % ID
same,"% ID/g Tumour, mean",[1]; 30 min post injection,0.53 % ID/g
same,"Tumour/Blood, mean",[1]; 30 min post injection,0.47
same,"Tumour/Heart, mean",[1]; 30 min post injection,1.15
same,"Tumour/Lung, mean",[1]; 30 min post injection,0.55
same,"Tumour/Muscle, mean",[1]; 30 min post injection,2.06
same,"% ID Urinary (urinary excretion), mean",[1]; 60 min post injection,15.02 % ID
same,"% ID/g Tumour, mean",[1]; 60 min post injection,0.32 % ID/g
same,"Tumour/Blood, mean",[1]; 60 min post injection,0.73
same,"Tumour/Heart, mean",[1]; 60 min post injection,1.54
same,"Tumour/Lung, mean",[1]; 60 min post injection,0.60
same,"Tumour/Muscle, mean",[1]; 60 min post injection,2.02
same,"% ID Urinary (urinary excretion), mean",[1]; 120 min post injection,19.68 % ID
same,"% ID/g Tumour, mean",[1]; 120 min post injection,0.31 % ID/g
same,"Tumour/Blood, mean",[1]; 120 min post injection,0.73
same,"Tumour/Heart, mean",[1]; 120 min post injection,1.33
same,"Tumour/Lung, mean",[1]; 120 min post injection,0.80
same,"Tumour/Muscle, mean",[1]; 120 min post injection,1.81
same,"% ID/G Carotid, mean",[2]; [3],0.88 % ID/G
same,"Carotid/Blood, mean",[2]; [3],0.42
same,"Carotid/Heart, mean",[2]; [3],0.49
same,"Carotid/Lung, mean",[2]; [3],0.35
same,"% ID/G Carotid, mean",[2]; [4],0.44 % ID/G
same,"Carotid/Blood, mean",[2]; [4],0.61
same,"Carotid/Heart, mean",[2]; [4],1.11
same,"Carotid/Lung, mean",[2]; [4],0.53
NC(=O)[C@H](Cc1ccc(O)c(I)c1)NC(=O)COCC(=O)NCCOCCOCCOCCNC(=O)[C@H](CCC(=O)O)NC(=O)[C@H](CCC(=O)O)NC(=O)[C@H](CCC(=O)O)NC(=O)[C@H](CCC(=O)O)NC(=O)[C@H](CCC(=O)O)NC(=O)CCN(C1(C(=O)NO)CCCC1)S(=O)(=O)c1ccc(Oc2ccc(F)cc2)cc1 [Compound 38],Ki,MMP-2,1.25 nM
same,Ki,MMP-9,0.99 nM
same,Ki,MMP-12,0.05 nM
NC(=O)[C@H](Cc1ccc(O)c(I)c1)NC(=O)[C@H](CCC(=O)O)NC(=O)[C@H](CCC(=O)O)NC(=O)[C@H](CCC(=O)O)NC(=O)[C@H](CCC(=O)O)NC(=O)[C@H](CCC(=O)O)NC(=O)CCN(C1(C(=O)NO)CCCC1)S(=O)(=O)c1ccc(Oc2ccc(F)cc2)cc1 [Compound 21] (X1-[X2]EEEEE[Tyr(3-I)]-NH2),Ki,MMP-1,195 nM
same,Ki,MMP-2,1.15 nM
same,Ki,MMP-8,0.87 nM
same,Ki,MMP-9,0.82 nM
NC(=O)[C@H](Cc1ccc(O)c([123I])c1)NC(=O)CCOCCOCCOCCOCCOCCOCCOCCOCCOCCOCCOCCNC(=O)CCOCCOCCOCCOCCOCCOCCOCCOCCOCCOCCOCCNC(=O)CCN(C1(C(=O)NO)CCCC1)S(=O)(=O)c1ccc(Oc2ccc(F)cc2)cc1 [Compound 32A],Blood clearance / retention,[1],"high initial blood retention, which cleared with time"
same,GI excretion,[1],low GI excretion
same,Tumour uptake and retention,[1],Good tumour uptake and retention were seen up to 1 hour post injection
same,Urinary excretion,[1],High urinary excretion
same,"% ID Urinary (urinary excretion), mean",[1]; 5 min post injection,9.82 % ID
same,"% ID/g Tumour, mean",[1]; 5 min post injection,2.58 % ID/g
same,"Tumour/Blood, mean",[1]; 5 min post injection,0.16
same,"Tumour/Heart, mean",[1]; 5 min post injection,0.48
same,"Tumour/Lung, mean",[1]; 5 min post injection,0.30
same,"Tumour/Muscle, mean",[1]; 5 min post injection,1.66
same,"% ID Urinary (urinary excretion), mean",[1]; 30 min post injection,35.20 % ID
same,"% ID/g Tumour, mean",[1]; 30 min post injection,2.67 % ID/g
same,"Tumour/Blood, mean",[1]; 30 min post injection,0.26
same,"Tumour/Heart, mean",[1]; 30 min post injection,0.75
same,"Tumour/Lung, mean",[1]; 30 min post injection,0.43
same,"Tumour/Muscle, mean",[1]; 30 min post injection,2.80
same,"% ID Urinary (urinary excretion), mean",[1]; 60 min post injection,54.06 % ID
same,"% ID/g Tumour, mean",[1]; 60 min post injection,2.03 % ID/g
same,"Tumour/Blood, mean",[1]; 60 min post injection,0.43
same,"Tumour/Heart, mean",[1]; 60 min post injection,1.31
same,"Tumour/Lung, mean",[1]; 60 min post injection,0.69
same,"Tumour/Muscle, mean",[1]; 60 min post injection,4.88
same,"% ID Urinary (urinary excretion), mean",[1]; 120 min post injection,64.10 % ID
same,"% ID/g Tumour, mean",[1]; 120 min post injection,1.34 % ID/g
same,"Tumour/Blood, mean",[1]; 120 min post injection,0.53
same,"Tumour/Heart, mean",[1]; 120 min post injection,1.54
same,"Tumour/Lung, mean",[1]; 120 min post injection,0.55
same,"Tumour/Muscle, mean",[1]; 120 min post injection,3.92
same,"% ID/G Carotid, mean",[2]; [3],10.32 % ID/G
same,"Carotid/Blood, mean",[2]; [3],0.46
same,"Carotid/Heart, mean",[2]; [3],1.39
same,"Carotid/Lung, mean",[2]; [3],1.01
same,"% ID/G Carotid, mean",[2]; [4],10.85 % ID/G
same,"Carotid/Blood, mean",[2]; [4],1.21
same,"Carotid/Heart, mean",[2]; [4],3.94
same,"Carotid/Lung, mean",[2]; [4],1.45
same,"% ID/G Carotid, mean",[2]; [5],2.91 % ID/G
same,"Carotid/Blood, mean",[2]; [5],0.69
same,"Carotid/Heart, mean",[2]; [5],1.28
same,"Carotid/Lung, mean",[2]; [5],0.70
NC(=O)[C@H](CCCCNC(=O)CON=Cc1ccc(F)cc1)NC(=O)CCOCCOCCOCCOCCOCCOCCOCCOCCOCCOCCOCCNC(=O)CCOCCOCCOCCOCCOCCOCCOCCOCCOCCOCCOCCNC(=O)CCN(C1(C(=O)NO)CCCC1)S(=O)(=O)c1ccc(Oc2ccc(F)cc2)cc1 [Compound 48],Ki,MMP-1,33.3 nM
same,Ki,MMP-8,0.5 nM
same,Ki,MMP-9,0.2 nM
NCCCC[C@H](NC(=O)CCN(C1(C(=O)NO)CCCC1)S(=O)(=O)c1ccc(Oc2ccc(F)cc2)cc1)C(=O)N[C@@H](CCCCN)C(=O)N[C@@H](CCCCN)C(=O)N[C@@H](CCCCN)C(=O)N[C@@H](CCCCN)C(=O)NCCOCCOCCOCCNC(=O)COCC(=O)N[C@@H](Cc1ccc(O)c(I)c1)C(N)=O [Compound 42],Ki,MMP-2,2.19 nM
same,Ki,MMP-9,0.585 nM
